Test results taken from patent publication US20260184669A1, “LIPID COMPOUND AND COMPOSITION FOR DELIVERY OF ACTIVE SUBSTANCE” (KOREA RESEARCH INSTIUTE OF BIOSCIENCE AND BIOTECHNOLOGY, priority 2022, published 2026).

Assays:
[1] = Stability of mRNA-LNPs according to storage temperature and duration; assay type: physicochemical; conditions: for Normalized EE % D-7 / PDI D-7 / Size (nm) D-7: day 7; for Normalized EE % D-30 / PDI D-30 / Size (nm) D-30: day 30
Description: Stability of fLuc mRNA-LNPs produced using various ionizable lipids according to the method of Example 27, was assessed by storing the LNPs at 4° C. and 25° C. At 1, 7, and 30 days post-manufacture, the size, PDI, and encapsulation efficiency (EE) of each mRNA-LNPs samples were measured using the methods described in Experimental Examples 2 and 3.

[2] = system: CCL3 mRNA level in HEK-293T cells
[3] = mRNA encapsulation efficiency (Quant-IT RiboGreen RNA assay); assay type: physicochemical; conditions: mRNA encapsulation efficiency of mRNA-LNP made with the ionizable lipid; average of two measurements
Method in brief: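 LNP samples read with RiboGreen reagent in TE buffer with or without 2% Triton X-100 (37 °C, 10 min) to release encapsulated mRNA. Fluorescence at λex 480/λem 520 nm; EE % calculated from the two readings, averaged over two independent measurements.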

[4] = Apparent pKa of mRNA-LNP by TNS binding assay; assay type: physicochemical; conditions: apparent pKa of mRNA-LNP made with the ionizable lipid
Description: The apparent pKa of the mRNA-LNPs prepared according to Example 27 was determined by analysis using 6-(p-toluidino)-2-naphthalenesulfonic acid sodium salt (TNS; Sigma-Aldrich, USA).
However, as the pH decreases, the proportion of positively charged ionizable lipids increases, allowing electrostatic interactions with TNS. […] When the pH of the solution increases and the ionizable lipids become neutralized, TNS can no longer engage in electrostatic interactions. Consequently, TNS loses its lipophilic character, exits the hydrophobic domain, and its fluorescence is quenched. Based on this principle, the pKa of LNPs can be measured by plotting the change in TNS fluorescence intensity in response to variations in the surrounding pH as an S-shaped curve, and calculating the […] of the inflection point. […]
Specifically, a master buffer was prepared containing 10 mM sodium phosphate, 10 mM sodium borate, 10 mM sodium citrate, and 150 mM sodium chloride (NaCl). […] After gently mixing the contents of each well, the fluorescence intensity was measured using a multiplate reader (Cary Eclipse, Agilent Technologies, USA) at an excitation wavelength of λex 330 nm and an emission wavelength of λem 435 nm.

female C57BL/6 mice = assay: Protein expression efficiency of fLuc mRNA-LNPs after intramuscular injection (IVIS whole-body luminescence); assay type: in vivo; conditions: fLuc mRNA-LNP, intramuscular injection, luminescence at injection site, mice
Method in brief: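 Female C57BL/6 mice (6-10 weeks, n≥4) got intramuscular fLuc mRNA-LNPs at 0.1-0.5 mg/kg mRNA. Injection-site luminescence was imaged under isoflurane at 1-72 h, 10 min after i.p. D-luciferin (200 μL, 15 mg/mL). Expression at 3 h was taken relative to MC3 or SM-102 LNPs.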

[5] = system: IL-6 mRNA level in HEK-293T cells
[6] = system: IL-1β mRNA level in HEK-293T cells
[7] = system: CCL2 mRNA level in HEK-293T cells
[8] = fLuc mRNA-LNP stored at 4° C., day 1
[9] = fLuc mRNA-LNP stored at 25° C., day 1

CCCCC/C=C\C/C=C\CCCCCCCCC(CCCCCCCC/C=C\C/C=C\CCCCC)OC(=O)CCCN(C)C [MC3, DLin-MC3-DMA, reference compound]
Normalized EE % D-1 [1, 8]: 95.0% | Size (nm) D-1 [1, 8]: 92.8 nm | Normalized EE % D-7 ([1]; fLuc mRNA-LNP stored at 4° C.): 94.0% | PDI D-7 ([1]; fLuc mRNA-LNP stored at 4° C.): 0.060 | Size (nm) D-7 ([1]; fLuc mRNA-LNP stored at 4° C.): 128.7 nm | Normalized EE % D-30 ([1]; fLuc mRNA-LNP stored at 4° C.): 90.4% | PDI D-30 ([1]; fLuc mRNA-LNP stored at 4° C.): 0.142 | Size (nm) D-30 ([1]; fLuc mRNA-LNP stored at 4° C.): 125.6 nm | Normalized EE % D-1 [1, 9]: 95.0% | PDI D-1 [1, 9]: 0.174 | Size (nm) D-1 [1, 9]: 92.8 nm | Normalized EE % D-7 ([1]; fLuc mRNA-LNP stored at 25° C.): 90.8% | PDI D-7 ([1]; fLuc mRNA-LNP stored at 25° C.): 0.110 | Size (nm) D-7 ([1]; fLuc mRNA-LNP stored at 25° C.): 123.0 nm | Normalized EE % D-30 ([1]; fLuc mRNA-LNP stored at 25° C.): 88.3% | PDI D-30 ([1]; fLuc mRNA-LNP stored at 25° C.): 0.123 | Size (nm) D-30 ([1]; fLuc mRNA-LNP stored at 25° C.): 119.3 nm | CCL3 Average [2]: 1.86 | EE (%) [3]: 95% | PKa [4]: 6.14 | Total flux 1 hour (female C57BL/6 mice; 1 hour after administration): 1.20E+06 | Total flux 3 hours (female C57BL/6 mice; 3 hours after administration): 1.24E+07 | Total flux 6 hours (female C57BL/6 mice; 6 hours after administration): 1.78E+07 | Total flux 48 hours (female C57BL/6 mice; 48 hours after administration): 8.41E+05 | Total flux 72 hours (female C57BL/6 mice; 72 hours after administration): 3.89E+05 | Total flux (female C57BL/6 mice; after administration): 1.03E+06 | IL-6 Average [5]: 1.27 | IL-1β Average [6]: 1.46 | CCL2 Average [7]: 1.15
